Experimental data published in publication PMC7778589, “Photosensitizer-based multimodal PSMA-targeting ligands for intraoperative detection of prostate cancer” (Theranostics, 2021).

Tests used:
[1] = target: T1, PSMA-expressing LS174T cells (LS174T-PSMA) (Homo sapiens, UniProt Q04609); assay: Binding and internalization assay with 111In-labeled ligands; type: cell-based; settings: 2 h 37 °C
T1 construct: expressed in transfected cells; host or cells: LS174T colon carcinoma cells (human), stably transfected with pcDNA3.1-hPSMA
T1 sequence (Q04609 whole entry): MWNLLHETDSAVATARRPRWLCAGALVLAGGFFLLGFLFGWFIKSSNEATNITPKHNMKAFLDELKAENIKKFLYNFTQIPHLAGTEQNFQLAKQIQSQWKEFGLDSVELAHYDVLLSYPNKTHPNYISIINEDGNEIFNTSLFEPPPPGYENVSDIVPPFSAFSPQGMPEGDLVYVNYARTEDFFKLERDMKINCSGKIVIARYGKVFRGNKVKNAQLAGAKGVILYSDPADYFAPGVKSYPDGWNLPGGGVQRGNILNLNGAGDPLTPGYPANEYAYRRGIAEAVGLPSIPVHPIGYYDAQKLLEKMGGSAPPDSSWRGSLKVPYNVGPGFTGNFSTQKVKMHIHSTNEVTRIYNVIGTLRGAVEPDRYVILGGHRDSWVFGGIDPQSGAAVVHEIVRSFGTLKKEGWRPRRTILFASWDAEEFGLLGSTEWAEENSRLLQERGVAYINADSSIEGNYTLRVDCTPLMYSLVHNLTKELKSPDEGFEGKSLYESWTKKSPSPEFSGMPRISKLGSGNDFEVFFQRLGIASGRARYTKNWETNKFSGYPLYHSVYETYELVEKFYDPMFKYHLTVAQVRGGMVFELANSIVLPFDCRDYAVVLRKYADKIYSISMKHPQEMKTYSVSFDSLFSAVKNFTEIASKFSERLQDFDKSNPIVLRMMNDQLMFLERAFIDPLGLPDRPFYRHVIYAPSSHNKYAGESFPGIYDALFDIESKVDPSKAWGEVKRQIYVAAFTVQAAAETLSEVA
Protocol: Cell lines were purchased from the American Type Culture Collection. LS174T colon carcinoma cells were stably transfected with human PSMA using the plasmid pcDNA3.1-hPSMA and cultured in RPMI 1640 medium supplemented with 2 mM glutamine, 10% FCS, and 0.3 mg/ml G418 at 37 °C in a humidified atmosphere with 5% CO2 [5].
Binding and internalization characteristics of all ligands were compared using LS174T-PSMA and wildtype LS174T cells. Cells were cultured to confluency in 6-wells plates followed by incubation at 37 °C for 2 h in 1 ml binding buffer (RPMI/0.5% BSA) with 50,000 counts per minute (cpm) of ^111In-labeled ligand (0.1-0.25 pmol/well). Nonspecific binding was determined by coincubation with 2-(phosphonomethyl)pentane-1,5-dioic acid (2-PMPA, 21.57 µM). PSMA-specific binding was defined as nonspecific binding subtracted from total binding. To retrieve the membrane-bound fraction, cells were washed with PBS twice and incubated with acid buffer (0.1 M acetic acid, 154 mM NaCl, pH 2.6) for 10 minutes at 0 °C. After incubation, the membrane bound fraction (in acid buffer) was collected, cells were washed, lysed with 0.1 M NaOH and cell lysis (intercellular activity) was collected. Membrane-bound activity and intercellular activity fractions were measured in a gamma-counter (2480 WIZARD^2 Automatic Gamma Counter, PerkinElmer), [25]. Human serum was used to determine the in vitro serum stability of the multimodal ligands (0.8 µg/ml serum, 5 MBq/μg labeling). After incubation for 2 h at 37°C, serum proteins were precipitated by adding a 1:1 (v/v) volume of acetonitrile followed by 5 min of centrifugation at 3220×g. Stability was evaluated by RP-HPLC analysis after 2 h of incubation at 37 °C. […] Experimental details are described in the supplementary materials and methods.

[2] = tested on: LS174T-PSMA and LS174T xenografts; assay: Biodistribution of 111In-labeled multimodal ligands; type: in vivo, BALB/c nude mice; settings: 0.3 nmol, 2 h p.i.
Protocol: Animal experiments were performed in 8-10 weeks old male BALB/c nude mice (Janvier). Animals were housed in individually ventilated cages (Blue line IVC, 4-5 mice per cage) under nonsterile standard conditions with cage enrichment present and free access to chlorophyll-free animal chow (Sniff GmbH) and water. Mice were subcutaneously inoculated with 3.0 x 10^6 LS174T-PSMA cells in the left flank and 1.5 × 10^6 LS174T cells in the right flank, diluted in 200 μL of complete RPMI 1640 medium. Eleven days after tumor cell inoculation when xenografts were approximately 0.1 cm^3, tracers were injected intravenously via the tail vein. The researchers were not blinded for the experimental groups and tumor-bearing mice were block-randomized into groups based on tumor size. All experiments were approved by the institutional Animal Welfare Committee of the Radboud university medical center and were conducted in accordance to the guidelines of the Revised Dutch Act on Animal Experimentation.
Mice were injected intravenously with 10 MBq ^111In-labeled PSMA ligands (0.3 nmol, molar activity 33.3 MBq/nmol) in PBS/0.5% BSA. Two hours post injection, mice were euthanized by CO2/O2-asphyxation and images were acquired with the IVIS fluorescence imaging system (Xenogen VivoVision IVIS Lumina II, Caliper Life Sciences), using an acquisition time of 10 s. Subsequently, µSPECT/CT images were acquired (U-SPECT II, MILabs) with a 1.0 mm diameter pinhole mouse collimator tube [26]. Mice were scanned for 30 min followed by a CT scan (spatial resolution 160 μm, 65 kV, 615 μA) for anatomical reference. µSPECT/CT scans were reconstructed with MILabs reconstruction software, using an ordered-subset expectation maximization algorithm, energy windows 154 - 188 keV and 220-270 keV, 3 iterations, 16 subsets, voxel size of 0.4 mm. SPECT/CT scans were analyzed and maximum intensity projections (MIPs) were created using the Inveon Research Workplace software version 4.1 (Siemens Preclinical Solutions). NIRF images were analyzed using Living Image software version 4.2 (Caliper Life Sciences). Tissues of interest were dissected, weighed and measured for radioactivity in a gamma-counter as described above. In the fluorescence-guided surgery feasibility study, pre-operative imaging was performed to visualize tumor tissue. After white light resection, NIRF imaging was repeated to assess if any remaining tumor was present.

[3] = Lipophilicity, PBS/n-octanol; type: physicochemical; settings: radiolabeled ligand
Protocol: Tubes were vortexed vigorously for 1 min and centrifuged for 5 min at 201×g for phase separation. The concentration of radioactivity in a defined volume of each layer was measured in a well-type gamma-counter.

Row | Structure (SMILES) | Internalized fraction [1] | Membrane bound fraction [1] | Adrenals [2] [%ID/g] | Blood [2] [%ID/g] | Bone [2] [%ID/g] | Bone marrow [2] [%ID/g] | Duodenum [2] [%ID/g] | Heart [2] [%ID/g] | Kidney [2] [%ID/g] | Liver [2] [%ID/g] | Lung [2] [%ID/g] | Muscle [2] [%ID/g] | Pancreas [2] [%ID/g] | Prostate [2] [%ID/g] | Salivary glands [2] [%ID/g] | Spleen [2] [%ID/g] | Stomach [2] [%ID/g] | Tumor- LS174T [2] [%ID/g] | Tumor/Blood ratio [2] | Tumor/Kidney ratio [2] | also measured
1 | C[Si](C)(CCC[N+](CCCS(=O)(=O)O)(CCCS(=O)(=O)O)CCCS(=O)(=O)O)O[Si-2]123(O[Si](C)(C)CCC[N+](CCCS(=O)(=O)O)(CCCS(=O)(=O)O)CCCS(=O)(=O)O)n4c5c6ccccc6c4N=C4c6cccc(OCCCOC(=O)NCCCCCC(=O)NCCCC[C@H](NC(=O)CCC(C(=O)O)N7CCN(CC(=O)O)CCN(CC(=O)O)CCN(CC(=O)O)CC7)C(=O)N[C@H](Cc7ccccc7)C(=O)NCCCCCC(=O)NCCCC[C@H](NC(=O)N[C@@H](CCC(=O)O)C(=O)O)C(=O)O)c6C(=[N+]41)N=c1c4ccccc4c(n12)=NC1=[N+]3C(=N5)c2ccccc21.[Na+].[Na+].[Na+].[Na+] (some centres unmarked) [N046] | 2.0 ± 0.39 | 0.8 ± 0.06 | 1.2 | 0.7 | 0.4 | 0.2 | 0.3 | 0.3 | 31.9 | 0.8 | 0.4 | 0.2 | 0.2 | 0.9 | 0.4 | 1.1 | 0.3 | 0.4 | 14.9 | 0.2 | Tumor+ LS174T-PSMA [2]: 4.3 %ID/g; Tumor/Liver ratio [2]: 6.1; Tumor/Muscle ratio [2]: 39.3; Tumor/Negative tumor ratio [2]: 10.8; Tumor/Prostate ratio [2]: 10.7; Tumor/Salivary gland ratio [2]: 12.5; Tumor/Spleen ratio [2]: 4.4 ± 1; LogD [3]: -2.4 ± 0.03
2 | C[Si](C)(CCC[N+](CCCS(=O)(=O)O)(CCCS(=O)(=O)O)CCCS(=O)(=O)O)O[Si-2]123(O[Si](C)(C)CCC[N+](CCCS(=O)(=O)O)(CCCS(=O)(=O)O)CCCS(=O)(=O)O)n4c5c6ccccc6c4N=C4c6cccc(OCCCOC(=O)NCCCCCC(=O)NCCCC[C@H](NC(=O)[C@H](CCC(=O)O)NC(=O)CN7CCN(CC(=O)O)CCN(CC(=O)O)CCN(CC(=O)O)CC7)C(=O)N[C@H](Cc7ccccc7)C(=O)N[C@@H](CCC(=O)O)C(=O)N[C@@H](CCC(=O)O)C(=O)NCCCCCC(=O)NCCCC[C@H](NC(=O)N[C@@H](CCC(=O)O)C(=O)O)C(=O)O)c6C(=[N+]41)N=c1c4ccccc4c(n12)=NC1=[N+]3C(=N5)c2ccccc21.[Na+].[Na+].[Na+].[Na+] [N122] | 1.4 ± 0.20 | 0.6 ± 0.01 | 1.7 | 0.6 | 0.7 | 0.4 | 0.4 | 0.5 | 72.5 | 1 ± 0.2 | 1 ± 0.3 | 0.2 | 0.3 | 0.4 | 0.5 | 1.6 | 0.4 | 0.5 | 13.9 | 0.2 | Tumor+ LS174T-PSMA [2]: 7.6 %ID/g; Tumor/Liver ratio [2]: 8.1; Tumor/Muscle ratio [2]: 48.4; Tumor/Negative tumor ratio [2]: 17.8; Tumor/Prostate ratio [2]: 21.5; Tumor/Salivary gland ratio [2]: 18.6; Tumor/Spleen ratio [2]: 5.2; LogD [3]: -2.8 ± 0.06
3 | C[Si](C)(CCC[N+](CCCS(=O)(=O)O)(CCCS(=O)(=O)O)CCCS(=O)(=O)O)O[Si-2]123(O[Si](C)(C)CCC[N+](CCCS(=O)(=O)O)(CCCS(=O)(=O)O)CCCS(=O)(=O)O)n4c5c6ccccc6c4N=C4c6cccc(OCCCOC(=O)NCCCCCC(=O)NCCCC[C@H](NC(=O)CCC(C(=O)O)N7CCN(CC(=O)O)CCN(CC(=O)O)CCN(CC(=O)O)CC7)C(=O)N[C@@H](CCC(=O)O)C(=O)N[C@@H](CCC(=O)O)C(=O)N[C@@H](CCC(=O)O)C(=O)NCCCCCC(=O)NCCCC[C@H](NC(=O)N[C@@H](CCC(=O)O)C(=O)O)C(=O)O)c6C(=[N+]41)N=c1c4ccccc4c(n12)=NC1=[N+]3C(=N5)c2ccccc21.[Na+].[Na+].[Na+].[Na+] (some centres unmarked) [N143] | 3.6 ± 0.22 | 0.5 ± 0.20 | 2.5 | 0.3 | 1.2 | 0.4 | 0.6 | 0.5 | 112.8 | 1 ± 0.2 | 0.7 | 0.3 | 0.4 | 1.4 | 0.6 | 3.1 ± 1 | 0.5 | 0.5 | 56 | 0.2 | Tumor/Liver ratio [2]: 15.2; Tumor/Muscle ratio [2]: 72.3; Tumor/Negative tumor ratio [2]: 36.7; Tumor/Prostate ratio [2]: 32.9; Tumor/Salivary gland ratio [2]: 28.8; Tumor/Spleen ratio [2]: 5.2; LogD [3]: -2.4 ± 0.10
